In ChEMBL document CHEMBL4831544, “Discovery of IHMT-EZH2-115 as a Potent and Selective Enhancer of Zeste Homolog 2 (EZH2) Inhibitor for the Treatment of B-Cell Lymphomas” (J Med Chem, 2021):

Columns and labels:
[1] = Antiproliferative activity against human WSUDLCL2 cells assessed as inhibition of cell growth measured after 6 days by CellTiter-Glo luminescent assay; format: functional; conditions: WSUDLCL2, 144 h, time 6 day
[2] = Apparent volume of distribution in rat at 1 mg/kg, iv; format: ADME, organism-based; conditions: in vivo; for Vd: read-out: Vz
[3] = AUC (0 to infinity) in rat at 1 mg/kg, iv; format: ADME, organism-based; design: route intravenous, time infinity, dose 1 mg/kg; conditions: in vivo
[4] = Apparent volume of distribution in rat at 10 mg/kg, po; format: ADME, organism-based; conditions: in vivo
[5] = Half life in rat at 1 mg/kg, iv; format: ADME, organism-based; conditions: in vivo
[6] = Cmax in rat at 1 mg/kg, iv; format: ADME, organism-based; design: route intravenous, dose 1 mg/kg; conditions: in vivo
[7] = Clearance in rat at 10 mg/kg, po; format: ADME, organism-based; conditions: in vivo; for CL: 10 mg/kg
[8] = AUC (0 to infinity) in rat at 10 mg/kg, po; format: ADME, organism-based; design: time infinity, route oral, dose 10 mg/kg; conditions: in vivo
[9] = Half life in rat at 10 mg/kg, po; format: ADME, organism-based; conditions: in vivo
[10] = Oral bioavailability in rat at 10 mg/kg; format: ADME, organism-based; conditions: in vivo
[11] = Clearance in rat at 1 mg/kg, iv; format: ADME, organism-based; conditions: in vivo
[12] = Cmax in rat at 10 mg/kg, po; format: ADME, organism-based; design: route oral, dose 10 mg/kg; conditions: in vivo
KARPAS-422 [13] = assay: Antiproliferative activity against human KARPAS-422 cells harboring EZH2 Y641N mutant assessed as inhibition of cell growth measured after 6 days by CellTiter-Glo luminescent assay; format: functional; conditions: KARPAS-422, 144 h, time 6 day
[14] = Toxicity in NCG mouse xenografted with human KARPAS-422 cells harboring EZH2 Y641N mutant assessed as effect on body weight at 200 mg/kg, po BID via gavage measured after 28 days; format: organism-based; conditions: in vivo, 672 h, time 28 day
KARPAS-422 [15] = assay: Antitumor activity against human KARPAS-422 cells harboring EZH2 Y641N mutant xenografted in NCG mouse assessed as tumor growth inhibition at 200 mg/kg, po BID via gavage measured after 28 days relative to control; format: functional; conditions: KARPAS-422, po, 672 h, time 28 day, read-out: TGI
[16] = Antiproliferative activity against human WSUDLCL2 cells harboring EZH2 Y641F mutant assessed as inhibition of cell growth measured after 6 days by CellTiter-Glo luminescent assay; format: functional; conditions: WSUDLCL2, 144 h, time 6 day
Pfeiffer [17] = assay: Antiproliferative activity against human Pfeiffer cells harboring EZH2 A677G mutant assessed as inhibition of cell growth measured after 6 days by CellTiter-Glo luminescent assay; format: functional; conditions: 144 h, time 6 day
[18] = Toxicity in NCG mouse xenografted with human Pfeiffer cells harboring EZH2 A677G mutant assessed as effect on body weight at 200 mg/kg, po BID via gavage measured after 28 days; format: organism-based; conditions: in vivo, 672 h, time 28 day
SU-DHL-6 = assay: Antiproliferative activity against human SU-DHL-6 cells harboring EZH2 Y641N mutant assessed as inhibition of cell growth measured after 6 days by CellTiter-Glo luminescent assay; format: functional; conditions: SU-DHL-6, 144 h, time 6 day
KARPAS-422 [19] = assay: Antitumor activity against human KARPAS-422 cells harboring EZH2 Y641N mutant xenografted in NCG mouse assessed as change in tumor weight at 200 mg/kg, po BID via gavage measured after 28 days (reference value: 2.14 g); format: functional; conditions: time 28 day
U2932 = assay: Antiproliferative activity against human U2932 cells expressing wild type EZH2 assessed as inhibition of cell growth measured after 6 days by CellTiter-Glo luminescent assay; format: functional; conditions: U2932, 144 h, time 6 day
Pfeiffer [20] = assay: Antitumor activity against human Pfeiffer cells harboring EZH2 A677G mutant xenografted in NCG mouse assessed as tumor growth inhibition at 200 mg/kg, po BID via gavage measured after 28 days relative to control; format: functional; conditions: 672 h, time 28 day, read-out: TGI
SUD4 = assay: Antiproliferative activity against human SU-DHL-4 cells harboring EZH2 Y641S mutant assessed as inhibition of cell growth measured after 6 days by CellTiter-Glo luminescent assay; format: functional; conditions: SU-DHL-4, 144 h, time 6 day

Cc1cc(C)c(CNC(=O)c2cc(-c3ccc(CN4CCOCC4)cc3)cc3c2CCN3C(=O)C2CCOCC2)c(=O)[nH]1
GI50 [1]: 94500 nM

Cc1cc(C)c(CNC(=O)c2cc(-c3ccc(CN4CCOCC4)cc3)cc3c2CCN3C(=O)C2CC2)c(=O)[nH]1
GI50 [1]: 50500 nM

CCN(C(=O)C1CC1)c1cc(-c2ccc(N3CCNCC3)cc2)cc(C(=O)NCc2c(C)cc(C)[nH]c2=O)c1C
GI50 [1]: 200 nM

CCN(C(=O)C1CC1)c1cc(-c2ccc(N3CCOCC3)cc2)cc(C(=O)NCc2c(C)cc(C)[nH]c2=O)c1C
GI50 [1]: 200 nM

CCN(C(=O)C(C)C)c1cc(-c2ccc(CN3CCOCC3)cc2)cc(C(=O)NCc2c(C)cc(C)[nH]c2=O)c1C
GI50 [1]: 500 nM

CCN(C(=O)C1CC1)c1cc(-c2ccc(N)cc2)cc(C(=O)NCc2c(C)cc(C)[nH]c2=O)c1C
GI50 [1]: 800 nM

CCN(C(=O)C1CC1)c1cc(-c2ccc(NC(=O)C3CCOCC3)cc2)cc(C(=O)NCc2c(C)cc(C)[nH]c2=O)c1C
GI50 [1]: 700 nM

CCN(C(=O)C1CCOCC1)c1cc(-c2ccc(CN3CCOCC3)cc2)cc(C(=O)NCc2c(C)cc(C)[nH]c2=O)c1C
GI50 [1]: 16200 nM

CC[C@H](C)n1cc(C)c2c(C(=O)NCc3c(C)cc(C)[nH]c3=O)cc(-c3ccc(N4CCNCC4)nc3)cc21 [GSK2816126]
GI50 [1]: 5000 nM

CCN(C(=O)C1CCC1)c1cc(-c2ccc(CN3CCOCC3)cc2)cc(C(=O)NCc2c(C)cc(C)[nH]c2=O)c1C
GI50 [1]: 900 nM

Cc1cc(C)c(CNC(=O)c2cc(-c3ccc(CN4CCOCC4)cc3)cc3c2CCN3C(=O)c2ccco2)c(=O)[nH]1
GI50 [1]: 51600 nM

CCN(C(=O)C1CC1)c1cc(-c2ccc(NC(=O)c3cccs3)cc2)cc(C(=O)NCc2c(C)cc(C)[nH]c2=O)c1C
GI50 [1]: 900 nM

CCC(=O)N(CC)c1cc(-c2ccc(CN3CCOCC3)cc2)cc(C(=O)NCc2c(C)cc(C)[nH]c2=O)c1C
GI50 [1]: 900 nM

CCN(C(C)=O)c1cc(-c2ccc(CN3CCOCC3)cc2)cc(C(=O)NCc2c(C)cc(C)[nH]c2=O)c1C
GI50 [1]: 13000 nM

CCN(C(=O)C1CCCC1)c1cc(-c2ccc(CN3CCOCC3)cc2)cc(C(=O)NCc2c(C)cc(C)[nH]c2=O)c1C
Vd [2]: 2.03 L/kg | GI50 [1]: 300 nM | AUC(0-inf) [3]: 269 ng·h/mL | Vz [4]: 53.401 L/kg | half-life [5]: 0.38 h | Cmax [6]: 824 ng/mL | CL/F [7]: 542 mL/min/kg | AUC(0-inf) [8]: 406 ng·h/mL | half-life [9]: 1.03 h | bioavailability [10]: 15.1% | clearance [11]: 62.7 mL/min/kg | Cmax [12]: 473 ng/mL

CCN1CCN(c2ccc(-c3cc(C(=O)NCc4c(C)cc(C)[nH]c4=O)c(C)c(N(CC)C(=O)C4CC4)c3)cc2)CC1
Vd [2]: 9.32 L/kg | GI50 [1]: 200 nM | AUC(0-inf) [3]: 241 ng·h/mL | Vz [4]: 470.567 L/kg | half-life [5]: 1.55 h | Cmax [6]: 444 ng/mL | CL [7]: 1805.68 mL/min/kg | AUC [8]: 242 ng·h/mL | half-life [9]: 2.08 h | bioavailability [10]: 13% | clearance [11]: 69.9 mL/min/kg | Cmax [12]: 115 ng/mL

CCN(c1cc(-c2ccc(CN3CCOCC3)cc2)cc(C(=O)NCc2c(C)cc(C)[nH]c2=O)c1C)C1CCOCC1 [TAZEMETOSTAT]
GI50 [1]: 300 nM | GI50 (KARPAS-422 [13]): 90 nM | Activity [14]: Non-Toxic | inhibition in vivo at 200 mg/kg (KARPAS-422 [15]): 89.3% | GI50 [16]: 80 nM | GI50 (Pfeiffer [17]): 2 nM | Activity [18]: Non-Toxic | GI50 (SU-DHL-6): 1050 nM | Activity (KARPAS-422 [19]): 0.23 g | GI50 (U2932): > 10000 nM | inhibition in vivo at 200 mg/kg (Pfeiffer [20]): 100% | GI50 (SUD4): 3390 nM

CCN(C(=O)C1CC1)c1cc(-c2cnc(N3CCN(CC4CC4)CC3)c(C)c2)cc(C(=O)NCc2c(C)cc(C)[nH]c2=O)c1C
Vz ([2]; 1 mg/kg): 79.554 L/kg | GI50 [1]: 300 nM | AUC(0-inf) [3]: 277 ng·h/mL | Vz [4]: 205.232 L/kg | t1/2 ([5]; 1 mg/kg): 1.79 h | Cmax [6]: 609 ng/mL | CL [7]: 155.8 mL/min/kg | AUC [8]: 132 ng·h/mL | t1/2 ([9]; 10 mg/kg): 1.82 h | bioavailability [10]: 4.8% | CL ([11]; 1 mg/kg): 60.87 mL/min/kg | Cmax [12]: 42 ng/mL

CCN(C(=O)C1CC1)c1cc(-c2cnc(N3CCN(CC4CC4)CC3)cc2C)cc(C(=O)NCc2c(C)cc(C)[nH]c2=O)c1C
GI50 [1]: 200 nM

CCN(C(=O)C1CCCCC1)c1cc(-c2ccc(CN3CCOCC3)cc2)cc(C(=O)NCc2c(C)cc(C)[nH]c2=O)c1C
GI50 [1]: 32400 nM

CCN(C(=O)C1CC1)c1cc(-c2ccc(NC(=O)c3cccnc3)cc2)cc(C(=O)NCc2c(C)cc(C)[nH]c2=O)c1C
GI50 [1]: 800 nM

Cc1cc(C)c(CNC(=O)c2cc(-c3ccc(CN4CCOCC4)cc3)cc3c2CCN3C(=O)C2CCCC2)c(=O)[nH]1
GI50 [1]: 44000 nM

CCN(C(=O)C1CC1)c1cc(-c2ccc(NC(=O)CCN(C)C)cc2)cc(C(=O)NCc2c(C)cc(C)[nH]c2=O)c1C
GI50 [1]: 1800 nM

CCN(C(=O)c1ccccc1)c1cc(-c2ccc(CN3CCOCC3)cc2)cc(C(=O)NCc2c(C)cc(C)[nH]c2=O)c1C
GI50 [1]: 34700 nM

CCN(C(=O)C1CC1)c1cc(-c2ccc(CN3CCOCC3)cc2)cc(C(=O)NCc2c(C)cc(C)[nH]c2=O)c1C
Vd [2]: 4.8 L/kg | GI50 [1]: 200 nM | AUC(0-inf) [3]: 242 ng·h/mL | Vz [4]: 208.585 L/kg | half-life [5]: 0.8 h | Cmax [6]: 686 ng/mL | CL/F [7]: 1170 mL/min/kg | AUC(0-inf) [8]: 244 ng·h/mL | half-life [9]: 1.88 h | bioavailability [10]: 10.1% | clearance [11]: 69.1 mL/min/kg | Cmax [12]: 106 ng/mL

CCN(C(=O)C1CC1)c1cc(-c2ccc(N3CCN(CC4CC4)CC3)nc2)cc(C(=O)NCc2c(C)cc(C)[nH]c2=O)c1C
Vd [2]: 6.5 L/kg | GI50 [1]: 200 nM | AUC(0-inf) [3]: 277 ng·h/mL | Vz [4]: 84.455 L/kg | half-life [5]: 1.25 h | Cmax [6]: 673 ng/mL | CL/F [7]: 675 mL/min/kg | AUC(0-inf) [8]: 260 ng·h/mL | half-life [9]: 1.46 h | bioavailability [10]: 9.4% | clearance [11]: 60.3 mL/min/kg | Cmax [12]: 67 ng/mL

CCN(C(=O)C1CC1)c1cc(-c2ccc(N3CCN(CC4CC4)CC3)cc2)cc(C(=O)NCc2c(C)cc(C)[nH]c2=O)c1C
GI50 [1]: 100 nM
